The values below come from PubChem BioAssay AID248 (DTP/NCI, 2004).

Where “and” joins values, the source holds several entries; their conditions need not be identical. Equal entries are not always repeated. Inconclusive results and toxic doses are left out.

This assay deals with L1210 leukemia ip in BDF1 mice, survival T/C. The assay can be described thus: NCI In Vivo Anticancer Drug Screen. Data for tumor model L1210 Leukemia (intraperitoneal) in B6D2F1 (BDF1) mice. Conditions: endpoint: mean survival time, higher = longer survival. The method in brief:
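Tumor was transplanted into mice, which were then dosed with test compound or vehicle alone. Survival was recorded for each group, and the treated figure was expressed relative to the control figure.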

The mark [1] stands for this setting: dose: 50.0 mg/kg/injection, schedule: Q01DX009 (ip), vehicle: saline with Tween-80.
The mark [2] stands for this setting: dose: 100.0 mg/kg/injection, schedule: Q01DX001 (ip), vehicle: saline with Tween-80.
Setting [3] is: dose: 100.0 mg/kg/injection, schedule: Q01DX009 (ip), vehicle: saline with Tween-80.
Setting [4] is: dose: 100.0 mg/kg/injection, schedule: Q04DX002 (ip), vehicle: saline with Tween-80.
[5] abbreviates: dose: 100.0 mg/kg/injection, schedule: Q04DX003 (ip), vehicle: saline with Tween-80.
The mark [6] stands for this setting: dose: 200.0 mg/kg/injection, schedule: Q01DX001 (ip), vehicle: saline with Tween-80.
Setting [7] is: dose: 200.0 mg/kg/injection, schedule: Q01DX009 (ip), vehicle: saline with Tween-80.
[8] abbreviates: dose: 200.0 mg/kg/injection, schedule: Q04DX002 (ip), vehicle: saline with Tween-80.
The mark [9] stands for this setting: dose: 200.0 mg/kg/injection, schedule: Q04DX003 (ip), vehicle: saline with Tween-80.
Setting [10] is: dose: 400.0 mg/kg/injection, schedule: Q01DX001 (ip), vehicle: saline with Tween-80.
Where [11] appears, read: dose: 400.0 mg/kg/injection, schedule: Q04DX002 (ip), vehicle: saline with Tween-80.
The mark [12] stands for this setting: dose: 100.0 mg/kg/injection, schedule: Q01DX001 (ip), vehicle: saline.
Setting [13] is: dose: 100.0 mg/kg/injection, schedule: Q04DX003 (ip), vehicle: saline.
[14] abbreviates: dose: 200.0 mg/kg/injection, schedule: Q01DX001 (ip), vehicle: saline.
[15] abbreviates: dose: 400.0 mg/kg/injection, schedule: Q01DX001 (ip), vehicle: saline.
Where [16] appears, read: dose: 400.0 mg/kg/injection, schedule: Q01DX009 (ip), vehicle: saline with Tween-80.

With `O=NN(CCF)C(=O)NC1CCC(C(=O)O)CC1` (stereo not drawn), the T/C by setting is: (dose: 4.0 mg/kg/injection, schedule: Q01DX001 (ip), vehicle: saline with Tween-80) 105 % of control and 106 % of control; (dose: 6.0 mg/kg/injection, schedule: Q01DX001 (ip), vehicle: saline with Tween-80) 108 % of control; (dose: 9.0 mg/kg/injection, schedule: Q01DX001 (ip), vehicle: saline with Tween-80) 116 % of control and 119 % of control; (dose: 13.0 mg/kg/injection, schedule: Q01DX001 (ip), vehicle: saline with Tween-80) 117 % of control; (dose: 20.0 mg/kg/injection, schedule: Q01DX001 (ip), vehicle: saline with Tween-80) 152 % of control; (dose: 30.0 mg/kg/injection, schedule: Q01DX001 (ip), vehicle: saline with Tween-80) 263 % of control and 206 % of control. Moreover, the T/C is 306 % of control and 432 % of control (dose: 45.0 mg/kg/injection, schedule: Q01DX001 (ip), vehicle: saline with Tween-80); 500 % of control (dose: 66.0 mg/kg/injection, schedule: Q01DX001 (ip), vehicle: saline with Tween-80).

On to `CC(c1ccccc1)N1C(=O)CSC1=S` (stereo not drawn), for which the T/C under setting [1] was 96 % of control and 101 % of control; the T/C under setting [2] was 100 % of control; the T/C under setting [3] is 99 % of control and 107 % of control; the T/C under setting [4] was 96 % of control and 98 % of control; the T/C under setting [5] is 104 % of control; the T/C under setting [6] is 100 % of control. For the same compound, the T/C runs as follows: under setting [7], 96 % of control and 91 % of control; under setting [8], 91 % of control; under setting [9], 102 % of control; under setting [10], 92 % of control; under setting [11], 90 % of control; (dose: 400.0 mg/kg/injection, schedule: Q04DX003 (ip), vehicle: saline with Tween-80) 90 % of control.

Take `CCOC(=O)C1=C(Nc2ccccc2)CSC1`: the T/C (dose: 25.0 mg/kg/injection, schedule: Q01DX009 (ip), vehicle: water) is 100 % of control; the T/C (dose: 50.0 mg/kg/injection, schedule: Q01DX009 (ip), vehicle: water) was 101 % of control; the T/C (dose: 100.0 mg/kg/injection, schedule: Q01DX009 (ip), vehicle: water) is 94 % of control; the T/C (dose: 200.0 mg/kg/injection, schedule: Q01DX009 (ip), vehicle: water) was 102 % of control; the T/C (dose: 400.0 mg/kg/injection, schedule: Q01DX009 (ip), vehicle: water) was 89 % of control.

For `CS(=O)(=O)OCCC(=O)NCCCCNC(=O)CCOS(C)(=O)=O`, the T/C runs as follows: under setting [12], 104 % of control; under setting [13], 115 % of control; under setting [14], 117 % of control; (dose: 264.0 mg/kg/injection, schedule: Q01DX001 (ip), vehicle: saline) 103 % of control and 121 % of control; (dose: 264.0 mg/kg/injection, schedule: Q01DX009 (ip), vehicle: saline) 113 % of control; under setting [15], 97 % of control. The T/C runs as follows: under setting [16], 122 % of control; (dose: 400.0 mg/kg/injection, schedule: Q01DX009 (ip), vehicle: saline) 112 % of control.

For `Nc1cc(N)nc(S(=O)O)n1`, the T/C runs as follows: (dose: 25.0 mg/kg/injection, schedule: Q04DX003 (ip), vehicle: saline) 93 % of control; (dose: 44.0 mg/kg/injection, schedule: Q01DX Z (ip), vehicle: saline) 119 % of control; (dose: 50.0 mg/kg/injection, schedule: Q01DX009 (ip), vehicle: Klucel (hydroxypropylcellulose) (HPC)) 95 % of control; (dose: 50.0 mg/kg/injection, schedule: Q04DX003 (ip), vehicle: saline) 92 % of control; (dose: 66.0 mg/kg/injection, schedule: Q01DX Z (ip), vehicle: saline) 113 % of control; (dose: 100.0 mg/kg/injection, schedule: Q01DX009 (ip), vehicle: Klucel (hydroxypropylcellulose) (HPC)) 95 % of control. Moreover, the T/C is 101 % of control (dose: 100.0 mg/kg/injection, schedule: Q01DX Z (ip), vehicle: saline); 107 % of control (dose: 100.0 mg/kg/injection, schedule: Q04DX003 (ip), vehicle: Klucel (hydroxypropylcellulose) (HPC)); 101 % of control under setting [13]; 89 % of control (dose: 200.0 mg/kg/injection, schedule: Q01DX009 (ip), vehicle: Klucel (hydroxypropylcellulose) (HPC)).

With `NCCCNCCNCCCN`, the T/C (dose: 100.0 mg/kg/injection, schedule: Q04DX002 (ip), vehicle: saline) is 98 % of control and the T/C (dose: 200.0 mg/kg/injection, schedule: Q04DX002 (ip), vehicle: saline) was 98 % of control.

Take `COC(=O)C(C)CSP(=S)(Oc1ccccc1)Oc1ccccc1` (stereo not drawn): the T/C under setting [4] is 105 % of control, the T/C under setting [8] was 105 % of control and the T/C under setting [11] was 102 % of control.

As to `CCCC(C)OC(=O)Nc1cccc(O)c1` (stereo not drawn), the T/C by setting is: under setting [3], 101 % of control; under setting [7], 101 % of control; under setting [16], 102 % of control.

Turning to `COc1cc2c(cc1OC)C(CN)C2` (stereo not drawn), the T/C runs as follows: (dose: 50.0 mg/kg/injection, schedule: Q01DX009 (ip), vehicle: saline) 101 % of control; (dose: 100.0 mg/kg/injection, schedule: Q01DX009 (ip), vehicle: saline) 103 % of control; under setting [13], 116 % of control; (dose: 200.0 mg/kg/injection, schedule: Q01DX009 (ip), vehicle: saline) 89 % of control; (dose: 200.0 mg/kg/injection, schedule: Q04DX003 (ip), vehicle: saline) 119 % of control.

Turning to `O=c1cc(NCc2cccc3ccc(Cl)cc23)[nH]c(=O)[nH]1`, the T/C is 92 % of control (dose: 50.0 mg/kg/injection, schedule: Q01DX001 (ip), vehicle: Klucel (hydroxypropylcellulose) (HPC)); 88 % of control (dose: 100.0 mg/kg/injection, schedule: Q01DX001 (ip), vehicle: Klucel (hydroxypropylcellulose) (HPC)); 87 % of control (dose: 200.0 mg/kg/injection, schedule: Q01DX001 (ip), vehicle: Klucel (hydroxypropylcellulose) (HPC)).

For the compound `Nc1nc(=S)[nH][nH]1`, the T/C under setting [1] is 105 % of control; the T/C under setting [2] is 104 % of control; the T/C under setting [3] is 117 % of control; the T/C under setting [5] was 104 % of control; the T/C under setting [6] was 105 % of control; the T/C under setting [7] is 101 % of control. Moreover, the T/C under setting [9] is 98 % of control.

Take `COc1cccc(N2C(=O)CC(=P(c3ccccc3)(c3ccccc3)c3ccccc3)C2=O)c1`: the T/C reads like this: (dose: 75.0 mg/kg/injection, schedule: Q01DX001 (ip), vehicle: saline) 96 % of control; (dose: 150.0 mg/kg/injection, schedule: Q01DX001 (ip), vehicle: saline) 95 % of control.

With `O=C(NC(=S)Nc1ccc2ccccc2c1)c1ccc(Cl)cc1Cl`, the T/C reads like this: under setting [2], 100 % of control; under setting [4], 93 % of control and 90 % of control; under setting [6], 101 % of control; under setting [8], 93 % of control and 96 % of control; under setting [10], 96 % of control; under setting [11], 104 % of control and 86 % of control.

Regarding `Oc1ccc2ccccc2c1C=NCC1CCC(CN=Cc2c(O)ccc3ccccc23)CC1` (stereo not drawn), the T/C under setting [12] was 91 % of control, the T/C under setting [14] was 95 % of control and the T/C under setting [15] was 88 % of control.

Take `O=C(Nc1ncc([N+](=O)[O-])s1)c1cccc([N+](=O)[O-])c1`: the T/C (dose: 6.25 mg/kg/injection, schedule: Q01DX009 (ip), vehicle: Klucel (hydroxypropylcellulose) (HPC)) is 92 % of control; the T/C (dose: 6.25 mg/kg/injection, schedule: Q04DX003 (ip), vehicle: Klucel (hydroxypropylcellulose) (HPC)) is 105 % of control; the T/C (dose: 12.5 mg/kg/injection, schedule: Q01DX009 (ip), vehicle: Klucel (hydroxypropylcellulose) (HPC)) was 100 % of control; the T/C (dose: 12.5 mg/kg/injection, schedule: Q04DX003 (ip), vehicle: Klucel (hydroxypropylcellulose) (HPC)) was 102 % of control; the T/C (dose: 25.0 mg/kg/injection, schedule: Q01DX009 (ip), vehicle: Klucel (hydroxypropylcellulose) (HPC)) is 89 % of control; the T/C (dose: 25.0 mg/kg/injection, schedule: Q04DX003 (ip), vehicle: Klucel (hydroxypropylcellulose) (HPC)) was 102 % of control.
